Activity calls are given as the source filed them. Unless noted, the rule behind the calls is not given here.
Tests used:
Plasmodium falciparum [1] = assay: Inhibition of recombinant Plasmodium falciparum M1 aminopeptidase assessed as residual activity at 20 uM using Ala-AMC as substrate pretreated for 30 mins followed by substrate addition by fluorescence assay relative to control
Plasmodium falciparum [2] = assay: Antimalarial activity against synchronized ring stage of […] Plasmodium falciparum 3D7 infected in human erythrocytes assessed as parasite growth at 25 uM after 72 hrs by YOYO-1 staining based flow cytometric analysis relative to control; type: functional
Plasmodium falciparum [3] = assay: Antimalarial activity against synchronized ring stage of […] Plasmodium falciparum 3D7 infected in human erythrocytes assessed as parasite growth at 25 uM after 48 hrs by Giemsa staining based microscopic analysis; type: functional, cell-based
Erythrocyte = assay: Hemolytic activity against human erythrocytes at 25 uM measured after 48 hrs; type: ADME, cell-based
Plasmodium falciparum [4] = assay: (§1) Antimalarial activity against asynchronized chloroquine-resistant Plasmodium falciparum FcB1/Columbia assessed as reduction in [3H]-hypoxanthine incorporation by measuring parasite growth at 50 uM pretreated for 24 hrs followed by [3H]-hypoxanthine addition after 24 hrs by microbeta scintillation counting analysis relative to control; type: functional; parameters: scale not given: the % may be the effect or the level left
Plasmodium falciparum [5] = assay: as §1, with “5” for “50”; type: functional; parameters: scale not given: the % may be the effect or the level left
Plasmodium falciparum [6] = assay: Antimalarial activity against synchronized ring stage of […] Plasmodium falciparum 3D7 infected in human erythrocytes assessed as parasite growth at 1 uM after 72 hrs by YOYO-1 staining based flow cytometric analysis relative to control; type: functional
[7] = Inhibition of recombinant Plasmodium falciparum M1 aminopeptidase using Ala-AMC as substrate pretreated for 30 mins followed by substrate addition by fluorescence assay
Plasmodium falciparum [8] = assay: Antimalarial activity against asynchronized chloroquine-resistant Plasmodium falciparum FcB1/Columbia assessed as reduction in [3H]-hypoxanthine incorporation pretreated for 24 hrs followed by [3H]-hypoxanthine addition after 24 hrs by microbeta scintillation counting analysis; type: functional
Plasmodium falciparum [9] = assay: Antimalarial activity against synchronized ring stage of […] Plasmodium falciparum 3D7 infected in human erythrocytes after 48 hrs by Giemsa staining based microscopic analysis; type: functional, cell-based; details: for IC50: 3D7, 48 h
Plasmodium falciparum [10] = assay: Inhibition of Plasmodium falciparum M1 aminopeptidase at 20 uM using Arg-AMC as substrate measured after 5 mins by fluorescence assay relative to control
[11] = Inhibition of Plasmodium falciparum M1 aminopeptidase using Ala-AMC as substrate by spectrofluorimetric assay
Plasmodium falciparum [12] = assay: Inhibition of Plasmodium falciparum M1 aminopeptidase at 200 uM using Ala-AMC as substrate by spectrofluorimetric assay
Aminopeptidase N = target: T1, Aminopeptidase N (Sus scrofa, UniProt P15145); assay: Inhibition of porcine kidney cortex aminopeptidase N using Leu-p-nitroanilide as substrate pretreated for 30 mins followed by substrate addition […]
T1 sequence (P15145 whole entry): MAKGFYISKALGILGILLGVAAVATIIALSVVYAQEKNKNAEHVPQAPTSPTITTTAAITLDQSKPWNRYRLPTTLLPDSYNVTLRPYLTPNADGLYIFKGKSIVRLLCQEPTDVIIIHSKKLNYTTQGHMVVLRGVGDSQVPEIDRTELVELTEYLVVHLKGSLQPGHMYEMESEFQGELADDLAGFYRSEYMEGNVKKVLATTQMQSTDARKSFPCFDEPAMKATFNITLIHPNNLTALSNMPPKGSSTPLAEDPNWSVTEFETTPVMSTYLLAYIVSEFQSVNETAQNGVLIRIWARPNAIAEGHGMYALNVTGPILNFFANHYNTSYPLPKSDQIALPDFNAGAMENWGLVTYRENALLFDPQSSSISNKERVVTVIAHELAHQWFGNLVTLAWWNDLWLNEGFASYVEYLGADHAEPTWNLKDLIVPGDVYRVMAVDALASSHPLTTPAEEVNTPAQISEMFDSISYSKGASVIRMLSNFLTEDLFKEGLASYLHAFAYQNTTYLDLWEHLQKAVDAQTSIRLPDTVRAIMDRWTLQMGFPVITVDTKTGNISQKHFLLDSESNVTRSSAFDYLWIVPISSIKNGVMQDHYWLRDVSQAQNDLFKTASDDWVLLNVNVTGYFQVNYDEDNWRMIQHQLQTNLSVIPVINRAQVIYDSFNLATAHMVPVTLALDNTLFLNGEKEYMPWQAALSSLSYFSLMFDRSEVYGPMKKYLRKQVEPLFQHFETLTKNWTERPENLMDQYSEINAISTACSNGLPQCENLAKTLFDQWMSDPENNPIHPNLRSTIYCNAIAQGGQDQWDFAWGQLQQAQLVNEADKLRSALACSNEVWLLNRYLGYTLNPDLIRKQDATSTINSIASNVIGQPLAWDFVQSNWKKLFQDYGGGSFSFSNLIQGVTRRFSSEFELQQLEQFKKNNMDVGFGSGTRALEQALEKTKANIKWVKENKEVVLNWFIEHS

[13] = Selectivity index, ratio of Ki for recombinant Plasmodium falciparum M1 aminopeptidase to Ki for porcine kidney cortex aminopeptidase N
[14] = target: T2, Aminopeptidase N (Sus scrofa) (UniProt P15145); assay: Inhibition of porcine kidney cortex aminopeptidase N up to 100 uM using Leu-p-nitroanilide as substrate […]
T2 sequence (whole entry): T1 sequence (P15145 whole entry)

HUVEC = assay: Cytotoxicity against HUVEC assessed as reduction in cell viability up to 200 uM by MTT assay; type: cell-based; details: human

SMILES | Activity (Plasmodium falciparum [1]) [%] | Activity (Plasmodium falciparum [2]) [%] | Activity (Plasmodium falciparum [3]) | Activity (Erythrocyte) | Activity (Plasmodium falciparum [4]) | Activity (Plasmodium falciparum [5]) | other results
O=C(CN1CCC[C@H]1C(=O)O)NC1CCCCC1 | 98 | 82 | Active | Non-Toxic |  |  | 
CC(C)C[C@H](N)C(=O)N(CC(=O)NCc1ccccc1)[C@H](C(=O)O)C(C)C | 85 | 65 | Active | Non-Toxic | 67 - 78% | 76.5 - 79% | 
COc1ccc(C(C(=O)NC(C)(C)C)N(C(=O)[C@@H](N)Cc2ccccc2)[C@@H](CC(C)C)C(=O)O)cc1OC (stereo partly specified) | 48 | 95 | Active | Non-Toxic | 42.5 - 99% | 56 - 99% | 
CC(C)C[C@H](NC(C(=O)NC1CCCCC1)c1cccnc1)C(=O)O (stereo partly specified) | 94 | 96 | Active | Non-Toxic |  |  | 
CCN(CC)CCCC(C)Nc1ccnc2cc(Cl)ccc12 (stereo unspecified) [CHLOROQUINE] |  |  |  |  |  |  | Activity (Plasmodium falciparum [6]): 25.9%
O=C(NC1CCCCC1)C(c1cccnc1)N1CCC[C@H]1C(=O)O (stereo partly specified) | 99 | 83 | Active | Non-Toxic |  |  | 
CC[C@H](C)[C@H](NCC(=O)NC1CCCCC1)C(=O)O | 100 | 93 | Active | Non-Toxic | 1.5 - 4.5% | 79.5 - 86.5% | 
CC(C)C[C@@H](C(=O)O)N(C(=O)[C@@H](N)Cc1ccccc1)C(C(=O)NCC(=O)O)c1ccccc1 (stereo partly specified) | 73 | 88 | Active | Non-Toxic | 89 - 97.5% | 97 - 99% | 
O=C(NC1CCCCC1)C(c1ccccc1)N1CCC[C@H]1C(=O)O (stereo partly specified) | 100 | 90 | Active | Non-Toxic |  |  | 
CC(C)C[C@@H](C(=O)O)N(C(=O)[C@@H](N)Cc1ccccc1)C(C(=O)NCc1ccccc1)c1ccccc1 (stereo partly specified) | 83 | 66 | Active | Non-Toxic | 39 - 55.5% | 65 - 90% | 
CC(C)C[C@H](NC(C(=O)NC1CCCCC1)c1ccccc1)C(=O)O (stereo partly specified) | 40 | 82 | Active | Non-Toxic | 15.5 - 23% | 85.5 - 93% | 
CC(C)C[C@H](N)C(=O)N(CC(=O)NC(C)(C)C)[C@@H](Cc1ccccc1)C(=O)O | 61 | 87 | Active | Non-Toxic | 71 - 83.5% | 92.5 - 99% | 
CC(C)C[C@H](NC(=O)[C@@H](O)[C@H](N)Cc1ccccc1)C(=O)O [UBENIMEX] | 1.2 | 36 |  | Non-Toxic |  |  | Ki [7]: < 0.16 µM; IC50 (Plasmodium falciparum [8]): 3.3 µM; IC50 (Plasmodium falciparum [9]): 21 µM; inhibition (Plasmodium falciparum [10]): 50%; IC50 [11]: < 0.31 µM
CC(C)C[C@@H](C(=O)O)N(C(=O)[C@@H](N)Cc1ccccc1)C(C(=O)NC(C)(C)C)c1ccccc1 (stereo partly specified) | 69 | 30 | Active | Non-Toxic | 2 - 2.5% | 49 - 100% | inhibition (Plasmodium falciparum [12]): inactive
CC(C)C[C@H](NCC(=O)NC1CCCCC1)C(=O)O | 96 | 60 | Active | Non-Toxic | 69 - 90% | 97 - 99% | 
COc1ccc(C(N[C@@H](CC(C)C)C(=O)O)C(=O)NC2CCCCC2)cc1OC (stereo partly specified) | 98 | 41 | Active | Non-Toxic |  |  | 
CC(C)C[C@@H](C(=O)O)N(C(=O)[C@@H](N)Cc1ccccc1)C(C(=O)NC(C)(C)C)c1cccnc1 (stereo partly specified) | 64 | 86 | Active | Non-Toxic | 1 - 11.5% | 16 - 99% | 
O=C(CN[C@@H](Cc1c[nH]c2ccccc12)C(=O)O)NC1CCCCC1 | 29 | 43 | Active | Non-Toxic | 31 - 39.5% | 83 - 92.5% | Ki [7]: 4.3 µM; IC50 (Plasmodium falciparum [8]): 37 µM; IC50 (Plasmodium falciparum [9]): 25 µM; Ki (Aminopeptidase N): 24 µM; Ratio Ki [13]: 5.6
CC(C)C[C@@H](C(=O)O)N(C(=O)[C@@H](N)Cc1ccccc1)C(C(=O)NCc1ccccc1)c1ccco1 (stereo partly specified) | 48 | 54 | Active | Non-Toxic | 2.5 - 4.5% | 83.5 - 93.5% | Ki [7]: 0.4 µM; IC50 (Plasmodium falciparum [8]): 16 µM; IC50 (Plasmodium falciparum [9]): 18 µM; inhibition [14]: inactive; Ratio Ki [13]: > 250; Activity (HUVEC): Non-Toxic; IC50 [11]: 82 µM
O=C(CN[C@@H](Cc1ccccc1)C(=O)O)NCc1ccccc1 | 23 | 38 | Active | Non-Toxic |  |  | Ki [7]: 0.9 µM; inhibition (Plasmodium falciparum [9]): Active
CC(C)C[C@@H](C(=O)O)N(C(=O)[C@@H](N)Cc1ccccc1)C(C(=O)NC(C)(C)C)c1ccco1 (stereo partly specified) | 42 | 96 | Active | Non-Toxic | 81.5 - 95% | 94.5 - 99% | 
O=C(NC1CCCCC1)C(N[C@@H](Cc1ccccc1)C(=O)O)c1ccccc1 (stereo partly specified) | 24 | 42 | Active | Non-Toxic |  |  | Ki [7]: 1.9 µM; IC50 (Plasmodium falciparum [9]): 26 µM
CC[C@H](C)[C@H](NC(C(=O)NC1CCCCC1)c1ccccc1)C(=O)O (stereo partly specified) | 96 | 77 | Active | Non-Toxic | 39.5 - 41.5% | 84.5 - 92.5% | 
CC(C)C[C@@H](C(=O)O)N(CC(=O)NCc1ccccc1)C(=O)[C@@H](N)Cc1ccccc1 | 91 | 89 | Active | Non-Toxic | 79 - 100% | 91 - 93.5% | 
CC(C)C[C@@H](C(=O)O)N(CC(=O)NC(C)(C)C)C(=O)[C@@H](N)Cc1ccccc1 | 97 | 45 | Active | Non-Toxic | 48.1 - 79.5% | 87.5 - 91.5% | 
O=C(CN[C@@H](Cc1ccccc1)C(=O)O)NC1CCCCC1 | 48 | 53 | Active | Non-Toxic | 21.5 - 56% | 84.5 - 99% | Ki [7]: 6.1 µM; IC50 (Plasmodium falciparum [8]): 29 µM; IC50 (Plasmodium falciparum [9]): 37 µM; Ki (Aminopeptidase N): 21 µM; Ratio Ki [13]: 3.4

Source: ChEMBL document CHEMBL4043116, “KBE009: An antimalarial bestatin-like inhibitor of the Plasmodium falciparum M1 aminopeptidase discovered in an Ugi multicomponent reaction-derived peptidomimetic library” (Bioorg Med Chem, 2017)
